Reference: patent US9839642B2, “Beta-tetrazolyl-propionic acids as metallo-beta-lactamase inhibitors” (priority 2014, dated 2017)

What was measured:
[1] = system: Klebsiella pneumoniae expressing VIM-1 (IHMA599644); assay: Antibiotic potentiation activity: synergistic concentration (MITC95) with imipenem, growth by OD600; assay type: cell-based; settings: 95% inhibition of bacterial growth, strain IHMA599644
Method in brief: (§1)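 MITC95 = lowest inhibitor concentration giving 95% growth inhibition, read by absorbance after 22–24 h at 35° C. Compound range 200 μM to 0.195 μM, imipenem fixed at 1 or 4 μg/ml, bacteria in 1.1×CAMHB from saline suspension diluted 1:100.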

[2] = system: Escherichia coli expressing NDM-1 (CLB30005); assay: as above; assay type: cell-based; settings: 95% inhibition of bacterial growth, strain CLB30005
Method in brief: as §1

[3] = system: Serratia marcescens expressing IMP-1 (CL5741); assay: as above; assay type: cell-based; settings: 95% inhibition of bacterial growth, strain CL5741
Method in brief: as §1

[4] = molecular target: IMP-1 (Serratia marcescens, UniProt P52699); assay: Enzyme activity: determination of IC50, fluorescence assay with CCF2-FA substrate; assay type: biochemical; settings: enzyme 2 pM, CCF2-FA 1.25 μM, 2 hours at 25° C.; read-out: IMP1 IC50
Chain of IMP-1 (P52699 19-246, looked up, species assumed): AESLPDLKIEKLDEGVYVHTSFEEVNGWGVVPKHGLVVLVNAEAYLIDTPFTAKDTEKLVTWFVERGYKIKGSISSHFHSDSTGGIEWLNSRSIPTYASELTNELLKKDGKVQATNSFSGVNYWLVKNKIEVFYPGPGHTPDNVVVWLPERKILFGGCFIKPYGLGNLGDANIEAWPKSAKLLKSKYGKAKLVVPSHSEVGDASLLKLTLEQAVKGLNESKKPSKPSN
Method in brief: (§2)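 In pH 7 phosphate buffer (100 mM) with 10 μM ZnSO4 and 0.005% Tween-20, CCF2-FA substrate (1.25 μM final) was hydrolysed for 2 h at 25 °C by NDM-1, IMP-1 or VIM-1 at 1, 2 or 30 pM in the presence of inhibitor at 20–0.00063 μM. Emission 460 nm/excitation 405 nm; 4-parameter curve fit gave IC50.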

[5] = molecular target: VIM-1 (Pseudomonas aeruginosa, UniProt A0A0F7KYQ8); assay: as above; assay type: biochemical; settings: enzyme 30 pM, CCF2-FA 1.25 μM, 2 hours at 25° C.; read-out: VIM1 IC50
Method in brief: as §2

[6] = molecular target: NDM-1 (Klebsiella pneumoniae, UniProt C7C422); assay: as above; assay type: biochemical; settings: enzyme 1 pM, CCF2-FA 1.25 μM, 2 hours at 25° C.; read-out: NDM1 IC50
Chain of NDM-1 (C7C422 29-270, looked up, species assumed): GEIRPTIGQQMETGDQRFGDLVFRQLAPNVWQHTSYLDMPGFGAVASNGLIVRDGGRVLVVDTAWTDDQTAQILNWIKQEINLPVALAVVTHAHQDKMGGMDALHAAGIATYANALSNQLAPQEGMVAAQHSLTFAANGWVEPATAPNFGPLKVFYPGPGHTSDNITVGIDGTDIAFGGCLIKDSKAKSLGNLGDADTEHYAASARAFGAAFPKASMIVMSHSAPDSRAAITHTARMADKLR
Method in brief: as §2

Row | SMILES | VIM1 KP599644 MITC95 [1] | NDM1 EC30005 MITC95 [2] | IMP1 SM5741 MITC95 [3] | IC50 [4] | IC50 [5] | IC50 [6]
1 | CCC[C@H](C(=O)O)[C@H](Cc1ccc(C#N)cc1)c1nn[nH]n1 [Example 40, (S)-2-((S)-2-(4-cyanophenyl)-1-(2H-tetrazol-5-yl)ethyl)pentanoic acid] | 25 µM | 8.3 µM | 100 µM | 2500 nM | 4.3 nM | 160 nM
2 | O=C(O)[C@H](CCC1CCCCC1)[C@@H](Cc1ccccc1)c1nnn[nH]1 [Example 31, (2R,3R)-2-(2-cyclohexylethyl)-4-phenyl-3-(1H-tetrazol-5-yl)butanoic acid] | >200 µM | >200 µM | >200 µM | 410 nM | 590 nM | 740 nM
3 | CCC[C@H](C(=O)O)[C@H](Cc1ccc(S(C)(=O)=O)cc1)c1nn[nH]n1 [Example 49, (S)-2-((S)-2-(4-(methylsulfonyl)phenyl)-1-(2H-tetrazol-5-yl)ethyl)pentanoic acid] | 50 µM | 6.2 µM | 37.5 µM | 720 nM | 7.6 nM | 69 nM
4 | CC[C@H](C(=O)O)[C@@H](c1nnn[nH]1)[C@@H](C)c1ccccc1 [Example 29, (2S,3S,4R)-2-ethyl-4-phenyl-3-(1H-tetrazol-5-yl)pentanoic acid] | 200 µM | 25 µM | >200 µM | 2300 nM | 210 nM | 530 nM
5 | CCC[C@H](C(=O)O)[C@H](Cc1ccc(-c2c(C)nn(C)c2C)nc1)c1nnn[nH]1 [Example 158, (S)-2-((S)-1-(1H-tetrazol-5-yl)-2-(6-(1,3,5-trimethyl-1H-pyrazol-4-yl)pyridin-3-yl)ethyl)pentanoic acid] | 100 µM | 62 µM | 12.5 µM | 61 nM | 25 nM | 14 nM
6 | CCCC[C@@H](C(=O)O)[C@@H](Cc1ccc(-c2ccc(S(N)(=O)=O)cc2)cc1)c1nn[nH]n1 [Example 184, (2R)-2-[(1R)-2-(4′-sulfamoylbiphenyl-4-yl)-1-(2H-tetrazol-5-yl)ethyl]hexanoic acid] | >200 µM | >200 µM | 100 µM | 200 nM | 300 nM | 900 nM
7 | CCC[C@H](C(=O)O)[C@H](Cc1ccc(-c2ccc3c(c2)CNC3=O)cc1)c1nnn[nH]1 [Example 234, (2S)-2-[(1S)-2-[4-(1-oxo-2,3-dihydro-1H-isoindol-5-yl)phenyl]-1-(1H-tetrazol-5-yl)ethyl]pentanoic acid] | 50 µM | 25 µM | 7.0 µM | 56 nM | 2.9 nM | 17 nM
8 | CC(C)C[C@H](C(=O)O)[C@H](Cc1ccccc1)c1nnn[nH]1 [Example 7, (2S)-4-methyl-2-[(2S)-2-phenyl-1-(1H-tetrazol-5-yl)ethyl]pentanoic acid] | 37.5 µM | 18.8 µM | 62.5 µM | 52 nM | 3.3 nM | 19 nM
9 | COCCC[C@H](C(=O)O)[C@H](Cc1ccccc1)c1nnn[nH]1 [Example 9, (2S)-5-methoxy-2-[(1S)-2-phenyl-1-(1H-tetrazol-5-yl)ethyl]pentanoic acid] | 200 µM | 31 µM | 25 µM | 850 nM | 63 nM | 97 nM
10 | CCC[C@H](C(=O)O)[C@H](Cc1ccc(-c2ccc3c(c2)CNC3)nc1)c1nnn[nH]1 [Example 95, 5-(5-((2S,3S)-3-carboxy-2-(1H-tetrazol-5-yl)hexyl)pyridin-2-yl)isoindolin-2-ium] | 12.5 µM | 3.1 µM | 50 µM | 2500 nM | 6.5 nM | 160 nM
